Biological target: T1, NK1 receptor (Cavia porcellus, UniProt P30547)
T1 construct: Guinea pigs (300-500 g) were anaesthetised with pentobarbital (50 mg/kg i.p.); from tissue; host or cells: whole anaesthetised guinea pig (in vivo)
Test: Inhibition of NK1-induced fall in blood pressure in anaesthetised guinea pigs (duration of activity)
Format: in vivo, guinea pig
Conditions: test substance intraduodenal, NK1-agonist 0.2 μmol/kg i.v. every 30 min for 6 to 8 hours
Method: Determining the Duration of Activity
Inhibition of NK1-induced Fall in Blood Pressure in Anaesthetised Guinea Pigs
Guinea pigs (300-500 g) were anaesthetised with pentobarbital (50 mg/kg i.p.) and prepared for duodenal administration of the test substances and for measurement of the arterial blood pressure. A temporary drop in blood pressure was induced by the intravenous administration of an NK1-agonist (0.2 μmol/kg at 30 minute intervals). After the basal value of the blood pressure had been determined the test substances were administered by intraduodenal route. Then the NK1-agonist was administered intravenously every 30 min for 6 to 8 hours. The results were expressed as a percentage inhibition in the NK1-induced fall in blood pressure and the ED50 values were calculated by regression analysis.

T1 sequence (P30547 whole entry): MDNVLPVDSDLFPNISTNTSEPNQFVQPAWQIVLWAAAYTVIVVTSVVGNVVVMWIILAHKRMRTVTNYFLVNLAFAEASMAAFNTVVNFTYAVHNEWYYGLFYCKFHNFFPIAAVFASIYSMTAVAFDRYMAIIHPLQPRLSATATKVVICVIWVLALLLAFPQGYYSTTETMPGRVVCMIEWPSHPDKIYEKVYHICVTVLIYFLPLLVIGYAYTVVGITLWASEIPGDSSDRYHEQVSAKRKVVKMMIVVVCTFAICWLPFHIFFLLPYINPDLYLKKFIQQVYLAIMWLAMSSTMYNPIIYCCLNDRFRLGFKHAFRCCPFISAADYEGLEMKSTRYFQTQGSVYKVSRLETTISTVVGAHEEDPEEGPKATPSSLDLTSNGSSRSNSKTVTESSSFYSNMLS

| SMILES | Duration of activity |
| --- | --- |
| CN(CCc1cc(C(F)(F)F)cc(C(F)(F)F)c1)C(=O)C(c1ccccc1)N1CCC(NC(CO)CO)CC1 (stereo not shown) [Example 2, N-[2-(3,5-bis-trifluoromethyl-phenyl)-ethyl]-2-[4-(2-hydroxy-1-hydroxymethyl-ethylamino)-piperidin-1-yl]-N-methyl-2-phenylacetamide] | >360 min |
| CN(CCc1cc(C(F)(F)F)cc(C(F)(F)F)c1)C(=O)C(c1ccccc1)N1CCC(N(C)CC2CC2)CC1 (stereo not shown) [Example 3, N-[2-(3,5-bis-trifluoromethyl-phenyl)-ethyl]-2-[4-(cyclopropylmethyl-methyl-amino)-piperidin-1-yl]-N-methyl-2-phenyl-acetamide] | >360 min |
| CN(CCc1cc(C(F)(F)F)cc(C(F)(F)F)c1)C(=O)C(c1ccccc1)N1CCC(N(C)CCCO)CC1 (stereo not shown) [Example 1, N-[2-(3,5-Bis-trifluoromethyl-phenyl)-ethyl]-2-{4-[(3-hydroxy-propyl)-methyl-amino]-piperidine-1-yl}-N-methyl-2-phenyl-acetamide] | >360 min |
| CN(CCc1cc(C(F)(F)F)cc(C(F)(F)F)c1)C(=O)[C@H](c1ccccc1)N1CCC(N(C)CCO)CC1 [Example B-1, reference compound] | 120 min |
| CN(CCc1cc(C(F)(F)F)cc(C(F)(F)F)c1)C(=O)C(c1ccccc1)N1CCC(N(CCO)CCCO)CC1 (stereo not shown) [Example 4, N-[2-(3,5-bis-trifluoromethyl-phenyl)-ethyl]-2-{4-[(2-hydroxy-ethyl)-(3-hydroxy-propyl)-amino]-piperidin-1-yl}-N-methyl-2-phenyl-acetamide] | >360 min |
| CN(CCc1cc(C(F)(F)F)cc(C(F)(F)F)c1)C(=O)[C@H](c1ccccc1)N1CCC(N(CCO)CCO)CC1 [Example B-4, reference compound] | 120 min |
| CN(CCc1cc(C(F)(F)F)cc(C(F)(F)F)c1)C(=O)[C@H](c1ccccc1)N1CCC(N(CCCO)CC2CC2)CC1 [Example 5, (S)—N-[2-(3.5-bis-trifluoromethyl-phenyl)-ethyl]-2-{4-[cyclopropylmethyl-(3-hydroxy-propyl)-amino]-piperidin-1-yl}-N-methyl-2-phenyl-acetamide] | >360 min |

From patent publication US6747044B2, “Neurokinin antagonists” (Boehringer Ingelheim Pharma KG, priority 2000, dated 2004)
